In PMC6556873, “Rapid Covalent-Probe Discovery by Electrophile-Fragment Screening” (Journal of the American Chemical Society, 2019):
Read-outs that look alike come from different tables or passages of the source.

What was measured:
in vitro [1] = assay: in vitro; design: species or system HB2, CCD841; conditions: human, hek293 cells
in vitro [2] = assay: in vitro; design: species or system HB2, HEK293; conditions: human, ccd841 cells
BSA = biological target: T1, BSA (Bos taurus, UniProt P02769); design: Intact protein LC/MS covalent labelling, fragments in pools of five, 200 uM each, 4 °C; conditions: 24 h, 4 °C, pool of five; 200 µM; covalent
T1 construct: gene ALB

NUDT7 = biological target: T2, NUDT7 (Homo sapiens, UniProt P0C024); design: Intact protein LC/MS covalent labelling, fragments in pools of five, 200 uM each, 4 °C; conditions: 24 h, 4 °C, pool of five; 200 µM; covalent
T2 construct: residues 14-235, E. coli, pNIC28-Bsa4, N-terminal His6 tag removed by TEV, construct 26672 Da

OTUB2 (OTUB2A) = biological target: T3, OTUB2 (OTUB2A) (Homo sapiens, UniProt Q96DC9); design: Intact protein LC/MS covalent labelling, fragments in pools of five, 200 uM each, 4 °C; conditions: 24 h, 4 °C, pool of five; 200 µM; covalent
T3 construct: full length residues 1-234, E. coli BL21(DE3)-R3, His tag removed by TEV, construct 27312 Da
T3 sequence (Q96DC9 1-234): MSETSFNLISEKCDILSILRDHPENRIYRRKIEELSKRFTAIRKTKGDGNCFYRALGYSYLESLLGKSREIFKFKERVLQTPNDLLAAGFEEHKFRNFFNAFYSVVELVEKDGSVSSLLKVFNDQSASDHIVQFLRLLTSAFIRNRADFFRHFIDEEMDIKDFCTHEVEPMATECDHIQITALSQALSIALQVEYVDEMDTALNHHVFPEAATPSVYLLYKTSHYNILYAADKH

PCAF = biological target: T4, PCAF (Homo sapiens, UniProt Q92831); design: Intact protein LC/MS covalent labelling, fragments in pools of five, 200 uM each, 4 °C; conditions: 24 h, 4 °C, pool of five; 200 µM; covalent
T4 construct: gene KAT2B

in vitro [3] = assay: in vitro; design: species or system CCD841, HEK293; conditions: human, hb2 cells, read-out: HB-2 Cells Viability (%)

T4 sequence (Q92831 whole entry, the tested form may be a part): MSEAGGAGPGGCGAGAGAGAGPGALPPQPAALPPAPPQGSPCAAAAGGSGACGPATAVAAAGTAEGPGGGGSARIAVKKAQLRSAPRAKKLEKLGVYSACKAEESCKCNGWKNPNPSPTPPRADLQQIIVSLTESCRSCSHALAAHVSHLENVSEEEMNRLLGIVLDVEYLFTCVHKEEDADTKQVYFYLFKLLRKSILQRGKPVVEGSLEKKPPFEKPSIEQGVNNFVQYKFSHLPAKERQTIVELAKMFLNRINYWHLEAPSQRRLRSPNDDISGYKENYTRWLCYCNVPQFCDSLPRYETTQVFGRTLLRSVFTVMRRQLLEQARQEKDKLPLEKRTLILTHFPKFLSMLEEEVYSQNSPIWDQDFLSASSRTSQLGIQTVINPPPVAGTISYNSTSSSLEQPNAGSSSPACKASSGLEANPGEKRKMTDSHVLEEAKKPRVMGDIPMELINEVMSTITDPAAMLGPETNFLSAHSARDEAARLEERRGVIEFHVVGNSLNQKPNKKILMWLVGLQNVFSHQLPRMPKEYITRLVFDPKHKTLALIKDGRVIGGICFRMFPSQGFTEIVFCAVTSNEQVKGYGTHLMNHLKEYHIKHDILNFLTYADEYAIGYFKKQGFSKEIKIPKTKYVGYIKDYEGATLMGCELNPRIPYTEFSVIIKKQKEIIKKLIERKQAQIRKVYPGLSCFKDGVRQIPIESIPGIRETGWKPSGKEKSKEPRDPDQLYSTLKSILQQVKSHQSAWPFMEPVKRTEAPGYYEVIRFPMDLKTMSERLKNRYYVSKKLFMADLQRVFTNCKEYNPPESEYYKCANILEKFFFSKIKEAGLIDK
T2 sequence (P0C024 14-235): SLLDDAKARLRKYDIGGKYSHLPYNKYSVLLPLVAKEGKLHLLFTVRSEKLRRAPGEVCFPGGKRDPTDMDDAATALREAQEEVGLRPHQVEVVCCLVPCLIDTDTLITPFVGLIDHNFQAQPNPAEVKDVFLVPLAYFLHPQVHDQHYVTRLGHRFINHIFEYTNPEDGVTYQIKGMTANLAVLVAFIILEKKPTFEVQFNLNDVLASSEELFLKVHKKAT
T1 sequence (P02769 whole entry, the tested form may be a part): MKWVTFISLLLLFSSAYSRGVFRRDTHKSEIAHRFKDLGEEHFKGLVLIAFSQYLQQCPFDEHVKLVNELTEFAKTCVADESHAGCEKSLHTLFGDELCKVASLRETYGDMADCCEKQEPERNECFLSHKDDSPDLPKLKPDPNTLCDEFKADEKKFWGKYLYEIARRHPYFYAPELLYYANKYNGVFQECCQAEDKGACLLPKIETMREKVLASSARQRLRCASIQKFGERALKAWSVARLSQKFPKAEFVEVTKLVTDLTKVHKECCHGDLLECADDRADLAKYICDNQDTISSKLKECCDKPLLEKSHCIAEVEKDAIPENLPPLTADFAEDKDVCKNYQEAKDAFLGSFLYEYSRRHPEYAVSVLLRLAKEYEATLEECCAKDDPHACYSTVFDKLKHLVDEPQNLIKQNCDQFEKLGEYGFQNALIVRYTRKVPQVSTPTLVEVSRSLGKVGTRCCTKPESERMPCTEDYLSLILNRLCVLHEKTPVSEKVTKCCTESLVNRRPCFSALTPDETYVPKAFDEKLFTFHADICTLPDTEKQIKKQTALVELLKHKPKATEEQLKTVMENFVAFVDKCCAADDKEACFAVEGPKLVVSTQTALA

BSA (BSA) | NUDT7 (NUDT7) | OTUB2 (OTUB2 (OTUB2A)) | PCAF (PCAF) | Compound | viability at 48 h, 10 µM (in vitro [1]) [%] | viability at 48 h, 10 µM (in vitro [2]) [%] | viability at 48 h, 10 µM (in vitro [3]) [%]
0 | 0 | 0 | 0 | C=CC(=O)Nc1cccc(Cl)c1 [PCM-0102961] | 80.4 | 103 | 97.3
0 | 0 | 0 | 0 | C=CC(=O)NC(O)C(Cl)(Cl)Cl (stereo not drawn) [PCM-0102963] | 94.7 | 89.7 | 102
0 | 0 | 0.36 | 0 | CC(=O)c1cccc(NC(=O)CCl)c1 [PCM-0102965] | 1.9 | 11 | 2.5
0 | 0 | 0.42 | 0 | C=CC(=O)N1CCC(n2ncc3ccccc32)C1 (stereo not drawn) [PCM-0102966] | 86.3 | 95.1 | 105
0 | 0 | 0 | 0 | Cc1sc(NC(=O)CCl)c(C)c1C [PCM-0102968] | 2.3 | 57.3 | 16.1
0 | 0 | 0 | 0 | CS(C)(=O)=NC(=O)CCl [PCM-0102969] | 102 | 97.5 | 96.1
0 | 0.66 | 0 | 0 | CC(c1cc2ccccc2o1)N(C)C(=O)CCl (stereo not drawn) [PCM-0102971] | 10.1 | 34.1 | 13.3
0.19 | 0.11 | 0.75 | 0 | Cc1ccc(CNC(=O)CCl)s1 [PCM-0102973] | 106 | 90.8 | 98
0 | 0 | 0 | 0 | CC(C)N(C)C(=O)C1CCN(C(=O)CCl)CC1 [PCM-0102974] | 79.8 | 84 | 86.7
0 | 0 | 0 | 0 | CN(C(=O)CCl)c1nccs1 [PCM-0102975] | 97 | 118 | 99.8
0 | 0 | 0 | 0 | COC(=O)c1cccc(NC(=O)CCl)n1 [PCM-0102977] | 105 | 101 | 103
0.07 | 0.43 | 0 | 0 | CCN(C(=O)CCl)c1ccccc1C [PCM-0102980] | 66.1 | 85.7 | 93.4
0.18 | 0 | 0 | 0 | CC(C)(C)OC(=O)CNC(=O)CCl [PCM-0102981] | 106 | 109 | 106
0.2 | 0 | 0.27 | 0 | O=C(CCl)NNC(=O)c1ccco1 [PCM-0102985] | 100 | 89.7 | 96.9
0 | 0 | 0.08 | 0 | C=CC(=O)NCc1cc2sccc2s1 [PCM-0102986] | 78.6 | 111 | 98.7
